Measurements reported in patent US20260285855A1, “HETEROARYL DERIVATIVES AS DDRS INHIBITORS” (CHIESI FARMACEUTICI S.P.A., priority 2023, published 2026).
Where two headings read alike, the source gives them in different places.

Experiments:
DDR2 = biological target: T1, DDR2 (Homo sapiens, UniProt Q16832); experiment: LanthaScreen Europium Kinase Binding assay, DDR2
T1 construct: purchased Life Technologies
T1 sequence (Q16832 22-855): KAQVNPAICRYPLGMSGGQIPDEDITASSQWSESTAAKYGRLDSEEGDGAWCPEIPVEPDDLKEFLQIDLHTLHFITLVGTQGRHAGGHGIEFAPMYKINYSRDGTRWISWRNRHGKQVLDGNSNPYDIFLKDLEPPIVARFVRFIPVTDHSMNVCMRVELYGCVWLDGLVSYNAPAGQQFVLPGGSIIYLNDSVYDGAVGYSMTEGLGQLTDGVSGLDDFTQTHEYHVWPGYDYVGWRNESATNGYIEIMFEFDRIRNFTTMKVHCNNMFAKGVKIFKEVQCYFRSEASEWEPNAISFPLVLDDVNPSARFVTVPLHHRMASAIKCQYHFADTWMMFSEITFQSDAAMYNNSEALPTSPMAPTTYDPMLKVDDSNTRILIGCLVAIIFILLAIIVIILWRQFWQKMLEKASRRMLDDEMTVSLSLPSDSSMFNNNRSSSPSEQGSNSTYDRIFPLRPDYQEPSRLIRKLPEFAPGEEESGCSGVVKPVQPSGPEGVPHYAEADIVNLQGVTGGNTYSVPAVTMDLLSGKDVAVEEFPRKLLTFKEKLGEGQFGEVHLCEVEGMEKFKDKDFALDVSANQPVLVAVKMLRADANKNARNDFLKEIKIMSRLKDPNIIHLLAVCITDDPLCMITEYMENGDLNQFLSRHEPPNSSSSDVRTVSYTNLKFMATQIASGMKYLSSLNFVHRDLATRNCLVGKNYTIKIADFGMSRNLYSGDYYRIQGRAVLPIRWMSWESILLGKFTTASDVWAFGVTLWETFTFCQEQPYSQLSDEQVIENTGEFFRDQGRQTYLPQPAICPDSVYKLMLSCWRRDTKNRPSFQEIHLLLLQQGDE
Experimental: (§1) DDR1 and DDR2 binding assays were performed using Life Technologies LanthaScreen™ Europium Kinase Binding assay. […] IC50 values were determined in GraphPad Prism 7.0 software, using 4 parameter model: log (inhibitor) vs. response. IC50 values were converted in Ki using the Cheng-Prusoff equation (Ki-IC50/(1+ [Tracer]/Kd).

DDR1 = biological target: T2, DDR1 (Homo sapiens, UniProt Q08345); experiment: LanthaScreen Europium Kinase Binding assay, DDR1
T2 construct: purchased Carna Biosciences
T2 sequence (Q08345 19-913): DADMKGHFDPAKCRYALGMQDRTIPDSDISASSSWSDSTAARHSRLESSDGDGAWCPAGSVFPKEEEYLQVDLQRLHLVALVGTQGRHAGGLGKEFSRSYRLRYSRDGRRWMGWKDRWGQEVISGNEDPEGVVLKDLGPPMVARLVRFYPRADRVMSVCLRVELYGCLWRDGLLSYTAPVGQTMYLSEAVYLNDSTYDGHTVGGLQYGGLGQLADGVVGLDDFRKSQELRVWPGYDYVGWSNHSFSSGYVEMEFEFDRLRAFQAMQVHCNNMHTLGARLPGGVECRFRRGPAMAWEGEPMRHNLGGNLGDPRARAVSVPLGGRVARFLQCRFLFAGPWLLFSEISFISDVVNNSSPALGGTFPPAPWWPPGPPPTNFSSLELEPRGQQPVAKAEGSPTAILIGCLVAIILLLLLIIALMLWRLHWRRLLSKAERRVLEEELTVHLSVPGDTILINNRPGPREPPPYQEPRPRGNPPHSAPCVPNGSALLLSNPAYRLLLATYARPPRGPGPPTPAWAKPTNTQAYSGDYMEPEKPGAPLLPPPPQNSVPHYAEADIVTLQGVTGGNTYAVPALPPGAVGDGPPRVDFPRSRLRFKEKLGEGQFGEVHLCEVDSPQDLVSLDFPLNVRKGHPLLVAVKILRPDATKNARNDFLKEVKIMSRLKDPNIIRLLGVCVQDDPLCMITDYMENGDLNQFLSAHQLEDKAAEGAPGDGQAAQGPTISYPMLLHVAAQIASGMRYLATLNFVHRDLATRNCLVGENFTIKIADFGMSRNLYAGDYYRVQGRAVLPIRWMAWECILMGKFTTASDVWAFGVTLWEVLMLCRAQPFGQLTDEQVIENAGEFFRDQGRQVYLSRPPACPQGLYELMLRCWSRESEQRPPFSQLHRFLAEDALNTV
Experimental: as §1

[1] = 5 nM DDR2, 10 nM Kinase Tracer 178, 1 h at rt, Ki from IC50 by Cheng-Prusoff, read-out: Ki DDR2
[2] = 5 nM DDR1, 20 nM Kinase Tracer 178, 1 h at rt, Ki from IC50 by Cheng-Prusoff, read-out: Ki DDR1
[3] = same binding assay, numeric values
[4] = same binding assay, numeric values, read-out: DDR2 Ki
[5] = same binding assay, numeric values, read-out: DDR1 Ki

| SMILES | Ki (DDR2; [1]) | Ki (DDR1; [2]) | DDR2 Ki (nM) (DDR2; [3]) | Ki (DDR2; [4]) | DDR1 Ki (nM) (DDR1; [3]) | Ki (DDR1; [5]) |
| --- | --- | --- | --- | --- | --- | --- |
| Cn1ccn2ncc(C(=O)N3CC4(CC(OC(=O)Nc5cc(OC(F)(F)F)ccn5)C4)C3)c12 [Example 294, 2-(1-methyl-1H-imidazo[1,2-b]pyrazole-7-carbonyl)-2-azaspiro[3.3]heptan-6-yl(4-(trifluoromethoxy)pyridin-2-yl)carbamate] | < 5 nM | < 5 nM | – | – | – | – |
| Cc1ccc(OC(F)(F)F)cc1NC(=O)OC1CC2(C1)CN(C(=O)c1cnn3ccn(C)c13)C2 [Example 295, 2-(1-methyl-1H-imidazo[1,2-b]pyrazole-7-carbonyl)-2-azaspiro[3.3]heptan-6-yl(2-methyl-5-(trifluoromethoxy)phenyl)carba-mate] | < 5 nM | < 5 nM | – | – | – | – |
| Cn1ccn2ncc(C(=O)N3CC4(CC(OC(=O)Nc5cc(C(F)(F)F)ccn5)C4)C3)c12 [Example 296, 2-(1-methyl-1H-imidazo[1,2-b]pyrazole-7-carbonyl)-2-azaspiro[3.3]heptan-6-yl(4-(trifluoromethyl)pyridin-2-yl)carbamate] | 5 to 25 nM | < 5 nM | – | – | – | – |
| Cn1ccn2ncc(C(=O)N3CC4(CC(OC(=O)Nc5cc(C(F)(F)F)ncn5)C4)C3)c12 [Example 297, 2-(1-methyl-1H-imidazo[1,2-b]pyrazole-7-carbonyl)-2-azaspiro[3.3]heptan-6-yl(6-(trifluoromethyl)pyrimidin-4-yl)carbamate] | 5 to 25 nM | < 5 nM | – | – | – | – |
| CCOc1ccc(C(F)(F)F)cc1NC(=O)NC1CC2(C1)CN(C(=O)c1cnn3ccn(C)c13)C2 [Example 298, 1-(2-ethoxy-5-(trifluoromethyl)phenyl)-3-(2-(1-methyl-1H-imidazo[1,2-b]pyrazole-7-carbonyl)-2-azaspiro[3.3]heptan-6-yl)urea] | < 5 nM | < 5 nM | – | – | – | – |
| Cn1ccn2ncc(C(=O)N3CC4(CC(OC(=O)Nc5cncc(OC(F)(F)F)c5)C4)C3)c12 [Example 299, 2-(1-methyl-1H-imidazo[1,2-b]pyrazole-7-carbonyl)-2-azaspiro[3.3]heptan-6-yl(5-(trifluoromethoxy)pyridin-3-yl)carbamate] | < 5 nM | < 5 nM | – | – | – | – |
| Cc1cc(C(F)(F)F)cc(NC(=O)N(C)C2CC3(C2)CN(C(=O)c2cnn4ccn(C)c24)C3)n1 [Example 300, 1-methyl-1-(2-(1-methyl-1H-imidazo[1,2-b]pyrazole-7-carbonyl)-2-azaspiro[3.3]heptan-6-yl)-3-(6-methyl-4-(trifluoromethyl)pyridin-2-yl)urea] | 5 to 25 nM | < 5 nM | – | – | – | – |
| [2H]C([2H])([2H])n1ccn2ncc(C(=O)N3CC4(CC(CC(=O)Nc5cc(OC(F)(F)F)ccn5)C4)C3)c12 [Example 301, 2-(2-(1-(methyl-d3)-1H-imidazo[1,2-b]pyrazole-7-carbonyl)-2-azaspiro[3.3]heptan-6-yl)-N-(4-(trifluoromethoxy)pyridin-2-yl)acetamide] | < 5 nM | < 5 nM | – | – | – | – |
| O=C(CC1CC2(C1)CN(C(=O)c1cnn3ccn(C(F)F)c13)C2)Nc1cc(OC(F)(F)F)ccn1 [Example 302, 2-(2-(1-(difluoromethyl)-1H-imidazo[1,2-b]pyrazole-7-carbonyl)-2-azaspiro[3.3]heptan-6-yl)-N-(4-(trifluoromethoxy)pyridin-2-yl)acetamide] | < 5 nM | < 5 nM | – | – | – | – |
| Cc1cnc(NC(=O)N(C)C2CC3(C2)CN(C(=O)c2cnn4ccn(C)c24)C3)cc1C(F)(F)F [Example 303, 1-methyl-1-(2-(1-methyl-1H-imidazo[1,2-b]pyrazole-7-carbonyl)-2-azaspiro[3.3]heptan-6-yl)-3-(5-methyl-4-(trifluoromethyl)pyridin-2-yl)urea] | 5 to 25 nM | < 5 nM | – | – | – | – |
| O=C(Nc1cncc(C(F)(F)F)c1)NC1CC2(C1)CN(c1cnc3[nH]ncc3c1)C2 [Example 304, 1-(2-(1H-pyrazolo[3,4-b]pyridin-5-yl)-2-azaspiro[3.3]heptan-6-yl)-3-(5-(trifluoromethyl)pyridin-3-yl)urea] | 5 to 25 nM | < 5 nM | – | – | – | – |
| CN(C(=O)Nc1cc(C(F)(F)C(F)(F)F)ccn1)C1CC2(C1)CN(C(=O)c1cnn3ccn(C)c13)C2 [Example 305, 1-methyl-1-(2-(1-methyl-1H-imidazo[1,2-b]pyrazole-7-carbonyl)-2-azaspiro[3.3]heptan-6-yl)-3-(4-(perfluoroethyl)pyridin-2-yl)urea] | 5 to 25 nM | < 5 nM | – | – | – | – |
| O=C(Nc1cc(C(F)(F)F)cnn1)NC1CC2(C1)CN(c1cnc3[nH]ncc3c1)C2 [Example 306, 1-(2-(1H-pyrazolo[3,4-b]pyridin-5-yl)-2-azaspiro[3.3]heptan-6-yl)-3-(5-(trifluoromethyl)pyridazin-3-yl)urea] | 5 to 25 nM | < 5 nM | – | – | – | – |
| Cc1ccc(OC(F)(F)F)cc1NC(=O)NC1CC2(C1)CN(c1cnc3[nH]ncc3c1)C2 [Example 307, 1-(2-(1H-pyrazolo[3,4-b]pyridin-5-yl)-2-azaspiro[3.3]heptan-6-yl)-3-(2-methyl-5-(trifluoromethoxy)phenyl)urea] | 25 to 100 nM | 5 to 25 nM | – | – | – | – |
| CN(C(=O)Nc1cc(C(F)(F)F)cc(Br)n1)C1CC2(C1)CN(C(=O)c1cnn3ccn(C)c13)C2 [Example 308, 3-(6-bromo-4-(trifluoromethyl)pyridin-2-yl)-1-methyl-1-(2-(1-methyl-1H-imidazo[1,2-b]pyrazole-7-carbonyl)-2-azaspiro[3.3]heptan-6-yl)urea] | < 5 nM | < 5 nM | – | – | – | – |
| CCc1ncc(C(F)(F)F)cc1NC(=O)NC1CC2(C1)CN(C(=O)c1cnn3ccn(C)c13)C2 [Example 309, 1-(2-ethyl-5-(trifluoromethyl)pyridin-3-yl)-3-(2-(1-methyl-1H-imidazo[1,2-b]pyrazole-7-carbonyl)-2-azaspiro[3.3]heptan-6-yl)urea] | 5 to 25 nM | < 5 nM | – | – | – | – |
| CCc1ncc(C(F)(F)F)cc1NC(=O)N(C)C1CC2(C1)CN(C(=O)c1cnn3ccn(C)c13)C2 [Example 310, 3-(2-ethyl-5-(trifluoromethyl)pyridin-3-yl)-1-methyl-1-(2-(1-methyl-1H-imidazo[1,2-b]pyrazole-7-carbonyl)-2-azaspiro[3.3]heptan-6-yl)urea] | 25 to 100 nM | 5 to 25 nM | – | – | – | – |
| Cn1ccn2ncc(C(=O)N3CC4(CC(OC(=O)Nc5cc(C(F)(F)F)cnn5)C4)C3)c12 [Example 311, 2-(1-methyl-1H-imidazo[1,2-b]pyrazole-7-carbonyl)-2-azaspiro[3.3]heptan-6-yl(5-(trifluoromethyl)pyridazin-3-yl)carbamate] | 5 to 25 nM | < 5 nM | – | – | – | – |
| COc1c(CO)cc(C(F)(F)F)cc1NC(=O)NC1CC2(C1)CN(c1cnc3[nH]ncc3c1)C2 [Example 312, 1-(2-(1H-pyrazolo[3,4-b]pyridin-5-yl)-2-azaspiro[3.3]heptan-6-yl)-3-(3-(hydroxymethyl)-2-methoxy-5-(trifluoromethyl)phenyl)urea] | 5 to 25 nM | < 5 nM | – | – | – | – |
| O=C(NC1CC2(C1)CN(C(=O)c1cnn3ccncc13)C2)c1cccc(C(F)(F)F)c1 [Example C1, N-(2-(pyrazolo[1,5-a]pyrazine-3-carbonyl)-2-azaspiro[3.3]heptan-6-yl)-3-(trifluoromethyl)benzamide, reference compound] | – | – | did not show a binding affinity | > 500 nM | did not show a binding affinity | > 500 nM |
| O=C(Cc1cccc(C(F)(F)F)c1)NC1CC2(C1)CN(C(=O)c1cnn3ccncc13)C2 [Example C2, N-(2-(pyrazolo[1,5-a]pyrazine-3-carbonyl)-2-azaspiro[3.3]heptan-6-yl)-2-(3-(trifluoromethyl)phenyl)acetamide, reference compound] | – | – | did not show a binding affinity | > 500 nM | did not show a binding affinity | > 500 nM |
| O=C(NC1CC2(C1)CN(C(=O)Nc1cccc(C(F)(F)F)c1)C2)c1cnn2ccncc12 [Example C3, N-(2-((3-(trifluoromethyl)phenyl)carbamoyl)-2-azaspiro[3.3]heptan-6-yl) pyrazolo[1,5-a]pyrazine-3-carboxamide, reference compound] | – | – | did not show a binding affinity | > 500 nM | did not show a binding affinity | > 500 nM |
